Reference: patent publication US8546565B2, “Quinazolinamide derivatives” (Merck Patent Gesellschaft, priority 2008, dated 2013)

molecular target: T1, Recombinant human HSP90a (Homo sapiens, UniProt P07900); assay: HSP90 radioligand filter binding test ([3H]17AAG competition); settings: [3H]17AAG 0.08 μM, HSP90 1.5 μg/assay, 22° C., 30 min; read-out: IC50 (HSP90 inhibition)
T1 construct: host or cells: E. coli
Source text: Test Method for the Measurement of HSP90 Inhibitors
The binding of geldanamycin or 17-allylamino-17-demethoxygeldanamycin (17AAG) to HSP90 and competitive inhibition thereof can be utilised in order to determine the inhibitory activity of the compounds according to the invention (Carreras et al. 2003, Chiosis et al. 2002).
In the specific case, a radioligand filter binding test is used. The radioligand used here is tritium-labelled 17-allylaminogeldanamycin, [3H]17AAG. This filter binding test allows a targeted search for inhibitors which interfere with the ATP binding site.
Recombinant human HSP90a (E. coli expressed, 95% purity);
[3H]17AAG (17-allylaminogeldanamycin, [allylamino-2,3-^3H. Specific activity: 1.11×10^12 Bq/mmol (Moravek, MT-1717);
HEPES filter buffer (50 mM HEPES, pH 7.0, 5 mM MgCl2, BSA 0.01%)
Multiscreen FB (1 μm) filter plate (Millipore, MAFBNOB 50).
The 96-well microtitre filter plates are firstly irrigated and coated with 0.1% of polyethylenimine.
The test is carried out under the following conditions:
Reaction temperature 22° C.
Reaction time: 30 min., shaking at 800 rpm
50 mM HEPES HCl, pH 7.0, 5 mM MgCl2, 0.01% (w/v) of BSA
At the end of the reaction, the supernatant in the filter plate is removed by suction with the aid of a vacuum manifold (Multiscreen Separation System, Millipore), and the filter is washed twice.
The filter plates are then measured in a beta counter (Microbeta, Wallac) with scintillator (Microscint 20, Packard).
“% of control” is determined from the “counts per minutes” values, and the IC-50 value of a compound is calculated therefrom.

IC50, 0.01 to 1 µM:
CN(CCO)S(=O)(=O)c1ccccc1-c1ccc2nc(N)nc(C(=O)N3Cc4ccccc4C3)c2c1 [Compound A8]
CN(C1CC1)S(=O)(=O)c1ccccc1-c1ccc2nc(N)nc(C(=O)N3Cc4ccccc4C3)c2c1 [Compound A65, 2-[2-amino-4-(1,3-dihydroisoindole-2-carbonyl)quinazolin-6-yl]-N-cyclopropyl-N-methylbenzenesulfonamide]
Nc1nc(C(=O)N2Cc3ccccc3C2)c2cc(-c3ccccc3S(=O)(=O)NCCO)ccc2n1 [Compound A11, 2-[2-Amino-4-(1,3-dihydroisoindole-2-carbonyl)quinazolin-6-yl]-N-(2-hydroxyethyl)benzenesulfonamide]
CCN(CCO)S(=O)(=O)c1ccc(F)cc1-c1ccc2nc(N)nc(C(=O)N3Cc4ccccc4C3)c2c1 [Compound A82]
CNCCN(C)S(=O)(=O)c1ccccc1-c1ccc2nc(N)nc(C(=O)N3Cc4ccccc4C3)c2c1 [Compound A13, 2-[2-Amino-4-(1,3-dihydroisoindole-2-carbonyl)quinazolin-6-yl]-N-methyl-N-(2-methylaminoethyl)benzenesulfonamide]
C[C@H]1CCCN1C(=O)c1ccccc1-c1ccc2nc(N)nc(C(=O)N3Cc4ccccc4C3)c2c1 [Compound A72, {2-Amino-6-[2-((S)-2-methylpyrrolidine-1-carbonyl)phenyl]quinazolin-4-yl}-(1,3-dihydroisoindol-2-yl)methanone]
Nc1nc(C(=O)N2Cc3ccccc3C2)c2cc(-c3ccccc3C(=O)NC3CCC3)ccc2n1 [Compound A46, 2-[2-Amino-4-(1,3-dihydroisoindole-2-carbonyl)quinazolin-6-yl]-N-cyclobutylbenzamide]
CCN(CC)C(=O)c1cc(F)ccc1-c1ccc2nc(N)nc(C(=O)N3Cc4ccccc4C3)c2c1 [Compound A71, 2-[2-Amino-4-(1,3-dihydroisoindole-2-carbonyl)quinazolin-6-yl]-N,N-diethyl-5-fluorobenzamide]
CC1CCC(C)N1S(=O)(=O)c1ccccc1-c1ccc2nc(N)nc(C(=O)N3Cc4ccccc4C3)c2c1 (stereo not drawn) [Compound A64, {2-amino-6-[2-(2,5-dimethylpyrrolidine-1-sulfonyl)phenyl]-quinazolin-4-yl}-(1,3-dihydroisoindol-2-yl)methanone]
CCN(CC)S(=O)(=O)c1ccccc1-c1ccc2nc(N)nc(C(=O)N3Cc4ccccc4C3)c2c1 [Compound A45, 2-[2-Amino-4-(1,3-dihydroisoindole-2-carbonyl)quinazolin-6-yl]-N,N-diethylbenzenesulfonamide]
Cc1nccn1S(=O)(=O)c1ccccc1-c1ccc2nc(N)nc(C(=O)N3Cc4ccccc4C3)c2c1 [Compound A28, {2-Amino-6-[2-(2-methylimidazole-1-sulfonyl)phenyl]quinazolin-4-yl}-(1,3-dihydroisoindol-2-yl)methanone]
Cc1cn(S(=O)(=O)c2ccccc2-c2ccc3nc(N)nc(C(=O)N4Cc5ccccc5C4)c3c2)cn1 [Compound A30, {2-Amino-6-[2-(4-methylimidazole-1-sulfonyl)phenyl]quinazolin-4-yl}-(1,3-dihydroisoindol-2-yl)methanone]
CCNC(=O)c1cc(F)ccc1-c1ccc2nc(N)nc(C(=O)N3Cc4ccccc4C3)c2c1 [Compound A83, 2-[2-Amino-4-(1,3-dihydroisoindole-2-carbonyl)quinazolin-6-yl]-N-ethyl-5-fluorobenzamide]
CNC(=O)C1CCCN1S(=O)(=O)c1ccccc1-c1ccc2nc(N)nc(C(=O)N3Cc4ccccc4C3)c2c1 (stereo not drawn) [Compound A58, 1-{2-[2-amino-4-(1,3-dihydroisoindole-2-carbonyl)quinazolin-6-yl]benzenesulfonyl}pyrrolidine-2-methylamide]
Nc1nc(C(=O)N2Cc3ccccc3C2)c2cc(-c3ccccc3C(=O)N3CCC(F)(F)C3)ccc2n1 [Compound A49, {2-Amino-6-[2-(3,3-difluoropyrrolidine-1-carbonyl)phenyl]quinazolin-4-yl}-(1,3-dihydroisoindol-2-yl)methanone]
CN(C(=O)c1ccccc1-c1ccc2nc(N)nc(C(=O)N3Cc4ccccc4C3)c2c1)C(C)(C)C [Compound A56, 2-[2-Amino-4-(1,3-dihydroisoindole-2-carbonyl)quinazolin-6-yl]-N-tert-butyl-N-methylbenzamide]
Nc1nc(C(=O)N2Cc3ccccc3C2)c2cc(-c3ccccc3C(=O)N3CCC(CO)C3)ccc2n1 (stereo not drawn) [Compound A35]
CC(C)(C)NC(=O)c1ccccc1-c1ccc2nc(N)nc(C(=O)N3Cc4ccccc4C3)c2c1 [Compound A47, 2-[2-Amino-4-(1,3-dihydroisoindole-2-carbonyl)quinazolin-6-yl]-N-tert-butylbenzamide]
CN(CCO)C(=O)c1ccccc1-c1ccc2nc(N)nc(C(=O)N3Cc4ccccc4C3)c2c1 [Compound A22]
CCN(CCO)S(=O)(=O)c1ccccc1-c1ccc2nc(N)nc(C(=O)N3Cc4ccccc4C3)c2c1 [Compound A25, 2-[2-Amino-4-(1,3-dihydroisoindole-2-carbonyl)quinazolin-6-yl]-N-ethyl-N-(2-hydroxyethyl)benzenesulfonamide]
Nc1nc(C(=O)N2Cc3ccccc3C2)c2cc(-c3cc(F)c(F)cc3C(=O)N3CCCC3)ccc2n1 [Compound A78, {2-Amino-6-[4,5-difluoro-2-(pyrrolidine-1-carbonyl)phenyl]quinazolin-4-yl}-(1,3-dihydroisoindol-2-yl)methanone]
Nc1nc(C(=O)N2Cc3ccccc3C2)c2cc(-c3cc(F)c(F)cc3C(=O)N3CCC3)ccc2n1 [Compound A80, {2-Amino-6-[2-(azetidine-1-carbonyl)-4,5-difluorophenyl]quinazolin-4-yl}-(1,3-dihydroisoindol-2-yl)methanone]
CCN(CCO)C(=O)c1cc(F)c(F)cc1-c1ccc2nc(N)nc(C(=O)N3Cc4ccccc4C3)c2c1 [Compound A75, 2-[2-Amino-4-(1,3-dihydroisoindole-2-carbonyl)quinazolin-6-yl]-N-ethyl-4,5-difluoro-N-(2-hydroxyethyl)benzamide]
Nc1nc(C(=O)N2Cc3ccccc3C2)c2cc(-c3ccccc3C(=O)N3CC[C@H](F)C3)ccc2n1 [Compound A62]
Nc1nc(C(=O)N2Cc3ccccc3C2)c2cc(-c3ccccc3S(=O)(=O)N3CCCC3C(=O)NCCO)ccc2n1 (stereo not drawn) [Compound A61, N-(2-hydroxyethyl)-1-{2-[2-amino-4-(1,3-dihydroisoindole-2-carbonyl)quinazolin-6-yl]benzenesulfonyl}pyrrolidine-2-carboxamide]
Nc1nc(C(=O)N2Cc3ccccc3C2)c2cc(-c3ccccc3S(=O)(=O)N3CCC(CO)C3)ccc2n1 (stereo not drawn) [Compound A21, {2-Amino-6-[2-(3-hydroxymethylpyrrolidine-1-sulfonyl)phenyl]quinazolin-4-yl}-(1,3-dihydroisoindol-2-yl)methanone]
Nc1nc(C(=O)N2Cc3ccccc3C2)c2cc(-c3ccccc3S(=O)(=O)N3CC(N)C3)ccc2n1 [Compound A29, {2-amino-6-[2-(3-aminoazetidine-1-sulfonyl)phenyl]quinazolin-4-yl}-(1,3-dihydroisoindol-2-yl)methanone]
